# Results from patent US6403554B2, “Polyunsaturated fatty acid derivatives and their use” (Ardenia Investments Ltd., priority 1998, dated 2002).
# Experiments:
# [1] = system: hemagglutinating antibodies in serum; assay: Humoral immune response: titers of hemagglutinating antibodies in serum; type: in vivo, C57B1/6 mice; conditions: serum, female mice
# Protocol: (§1) 0.15 ml of compound 10 was administered intravenously to 6 mice females of CS7B1/6 line (weight 18-22 g) in doses of 45.5, 91 and 136.5 μg of compound 10 per capita for each testing group according to the dose. Simultaneously, a suspension of 5·10^7 sheep erythrocytes was injected intraperitoneally (0.2 ml per capita). Mice in the control group were injected intravenously with equal volume of saline. The effects of compound 10 on humoral immune response were analyzed both by counting the quantity of AFC in the spleen according to Cunningham (per 10^6 spleen cells and per spleen) and estimating the titers of hemagglutining antibodies in serum of the animals (Cunningham A. J., Nature, 1965, Vol.207, No 5001. P.1106-1107), while the titers of hemagglutinating antibodies were evaluated according to litterature (Evans J. et al., Cell, 1974; Vol 3., p.153-158, Feizi T., Menger E., Transfusion, 1970, Vol. 10, p.33-35,).
# (§2) 0.15 ml of compound 11 was administered intravenously to 6 female mice of the C57B1/6 line (weight 18-22 g) in doses of 45.5, 91 and 136.5 μg of compound 11 per capita for each testing group according to the dose. Simultaneously, a suspension of 5·10^7 sheep erytrocytes was injected intraperitoneally (0.2 ml per capita). Mice in the control group were injected intravenously with an equal volume of saline. The effects of compound 11 on humoral immune response was analysed both by counting the quantity of AFC in the spleen according to Cunningham (per 10^6 spleen cells and per spleen) and estimating the titers of hemagglutining antibodies in serum of the animals.
# as §2, with “12” for “11”, “erythrocytes” for “erytrocytes”, “analyzed” for “analysed”
# as §2, with “compound 8” for “compound 11”, “sheep erythrocytes” for “sheep erytrocytes”, “Mice of” for “Mice in”, “response were analyzed” for “response was analysed”
# as §2, with “compound 3” for “compound 11”, “Mice of” for “Mice in”, “with” for “with an”, “response were” for “response was”
# 0.15 ml of compound 4 was administered intravenously to 6 female mice of the C57B1/6 line (weight 18-22 g) in a doses of 45.5, 91 and 136.5 μg of compound 4 per capita for each testing group according to the dose. Simultaneously, a suspension of 5·10^7 sheep erythrocytes was injected intraperitoneally (0.2 ml per capita). […]
# [2] = system: antibody-forming cells (AFC) in the spleen; assay: Influence of compound on humoral immune response to sheep erythrocytes, C57B1/6 female mice (AFC in spleen, hemagglutinins); type: in vivo; conditions: for Amount of antibody-forming cells per 10^6 spleen cells / Amount of antibody-forming cells per spleen / Effect on relative amount of AFC (per 10^6 spleen cells) / Effect on total AFC amount (per spleen) / Effect on hemagglutinin titers / Spleen index: i.v.; for Amount of antibody-forming cells per 10^6 spleen cells / Amount of antibody-forming cells per spleen / Effect on relative amount of AFC (per 10^6 spleen cells) / Effect on total AFC amount (per spleen): 5th day; for Amount of antibody-forming cells per 10^6 spleen cells / Amount of antibody-forming cells per spleen: M ± SEM; for Effect on relative amount of AFC (per 10^6 spleen cells) / Effect on total AFC amount (per spleen) / Effect on hemagglutinin titers: vs control; for Spleen index: with SRBC i.p.; for Immunogenic activity: 45.5 and 91 μg/mouse
# Protocol: The increase was calculated as compared with the amount of cells in the animals immunised only with sheep erythrocytes.
# as §1, §2
# as §2, with “12” for “11”, “erythrocytes” for “erytrocytes”, “analyzed” for “analysed”
# as §2, with “compound 8” for “compound 11”, “sheep erythrocytes” for “sheep erytrocytes”, “Mice of” for “Mice in”, “response were analyzed” for “response was analysed”
# 0.15 ml of compound 3 was administered intravenously to 6 female mice of the C57B1/6 line (weight 18-22 g) in doses of 45.5, 91 and 136.5 μg of compound 3 per capita for each testing group according to the dose. Simultaneously, a suspension of 5·10^7 sheep erytrocytes was injected intraperitoneally (0.2 ml per capita). Mice of the control group were injected intravenously with equal volume of saline.
SMILES,Amount of hemagglutinins ([1]; 45.5 μg/mouse i.v.) [Log2 T],Amount of hemagglutinins ([1]; 91 μg/mouse i.v.) [Log2 T],Amount of hemagglutinins ([1]; 136.5 μg/mouse i.v.) [Log2 T],Amount of antibody-forming cells per 10^6 spleen cells ([2]; 45.5 μg/mouse),Amount of antibody-forming cells per spleen ([2]; 45.5 μg/mouse),Effect on relative amount of AFC (per 10^6 spleen cells) ([2]; 45.5 μg/mouse),Effect on total AFC amount (per spleen) ([2]; 45.5 μg/mouse),Spleen index ([2]; 45.5 μg/mouse),Amount of antibody-forming cells per 10^6 spleen cells ([2]; 91 μg/mouse),Amount of antibody-forming cells per spleen ([2]; 91 μg/mouse),Effect on relative amount of AFC (per 10^6 spleen cells) ([2]; 91 μg/mouse),Effect on total AFC amount (per spleen) ([2]; 91 μg/mouse),Effect on hemagglutinin titers ([2]; 91 μg/mouse),Spleen index ([2]; 91 μg/mouse),immunostimulating action ([2]; 136.5 μg/mouse),Amount of antibody-forming cells per 10^6 spleen cells ([2]; 136.5 μg/mouse),Amount of antibody-forming cells per spleen ([2]; 136.5 μg/mouse),Effect on hemagglutinin titers ([2]; 136.5 μg/mouse),Spleen index ([2]; 136.5 μg/mouse),Immunogenic activity [2],also measured
"CC/C=C\C/C=C\C/C=C\C/C=C\C/C=C\CCCC(=O)NCCOP(=O)(O)O [Compound 13, N-eicosapentaenoyl-o-phospho-2-aminoethanol]",9.7 ± 1.2,9.5 ± 1.2,10.3 ± 0.9,,,,,,,,,,,,,,,,,,
"CC/C=C\C/C=C\C/C=C\CCCCCCCC(=O)N[C@H](C(=O)O)[C@@H](C)OP(=O)(O)O [Compound 19, N-(cis-9,12,15-octadecatrienoyl)-O-phospho-L-threonine]",,,,454.7±57.9 cells per 10^6 spleen cells,48.8±6.4 × 10^3,+4.3 p > 0.05%,+5.4 p > 0.05%,6.2 ± 10^−3,473.2±44.5 cells per 10^6 spleen cells,51.2±6.1 × 10^3,+8.6 p > 0.05%,+10.6 p > 0.05%,+3.8 p > 0.05%,6.4 ± 10^−3,marked immunostimulating action,612.5±47.3 cells per 10^6 spleen cells,64.7±4.9 × 10^3,+6.3 p > 0.05%,6.5 ± 10^−3,no immunogenic activity,"Effect on hemagglutinin titers ([2]; 45.5 μg/mouse): +1,3 p > 005%"
"CC/C=C\C/C=C\C/C=C\CCCCCCCC(=O)N[C@H](C(=O)O)[C@@H](C)OP(=O)(O)O [Compound 19, N-linolenoyl-o-phospho-L-threonine]",8.1 ± 0.3,8.3 ± 0.4,8.5 ± 0.3,,,,,,,,,,,,,,,,,,
"CC/C=C\C/C=C\C/C=C\CCCCCCCC(=O)N[C@@H](Cc1ccc(OP(=O)(O)O)cc1)C(=O)O [Compound 20, N-(cis-9,12,15-octadecatrienoyl)-O-phospho-L-tyrosine]",,,,512.8±46.2 cells per 10^6 spleen cells,46.4±4.8 × 10^3,−9.8 p > 0.05%,−7.4 p > 0.05%,6.3 ± 0.3 10^−3,634.5±51.7 cells per 10^6 spleen cells,55.7±5.6 × 10^3,+11.6 p > 0.05%,+11.2 p > 0.05%,+1.4 p > 0.05%,6.5 ± 0.2 10^−3,marked immunostimulating action,845.1±43.1 cells per 10^6 spleen cells,75.8±7.7 × 10^3,+2.7 p > 0.05%,6.4 ± 0.4 10^−3,no immunogenic activity,
